Test results published in patent US9512105B2, “1-substituted 4-arylpiperazine as kappa opioid receptor antagonists” (RESEARCH TRIANGLE INSTITUTE, priority 2011, dated 2016).
Where a name gives a salt, the structure may show the parent alone. Read-outs that look alike come from different tables or passages of the source.

Legend:
[1] = target: T1, cloned human μ-opioid receptor (Homo sapiens, UniProt P35372); assay: Inhibition of DAMGO-stimulated [35S]GTPγS binding; format: biochemical
T1 construct: expressed in transfected cells
T1 sequence (P35372 whole entry): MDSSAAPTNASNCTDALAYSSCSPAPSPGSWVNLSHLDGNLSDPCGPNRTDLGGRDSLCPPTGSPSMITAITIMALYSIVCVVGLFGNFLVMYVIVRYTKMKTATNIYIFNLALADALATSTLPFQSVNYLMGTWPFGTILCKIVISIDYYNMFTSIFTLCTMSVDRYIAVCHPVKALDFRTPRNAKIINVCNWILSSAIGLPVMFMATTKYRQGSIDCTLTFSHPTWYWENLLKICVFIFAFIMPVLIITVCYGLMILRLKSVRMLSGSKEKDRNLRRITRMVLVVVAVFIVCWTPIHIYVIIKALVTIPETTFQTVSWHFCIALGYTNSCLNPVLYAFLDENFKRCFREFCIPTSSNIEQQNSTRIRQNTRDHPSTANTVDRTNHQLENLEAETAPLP

[2] = target: T2, cloned human δ-opioid receptor (Homo sapiens, UniProt P41143); assay: Inhibition of DPDPE-stimulated [35S]GTPγS binding; format: biochemical
T2 construct: expressed in transfected cells
T2 sequence (P41143 whole entry): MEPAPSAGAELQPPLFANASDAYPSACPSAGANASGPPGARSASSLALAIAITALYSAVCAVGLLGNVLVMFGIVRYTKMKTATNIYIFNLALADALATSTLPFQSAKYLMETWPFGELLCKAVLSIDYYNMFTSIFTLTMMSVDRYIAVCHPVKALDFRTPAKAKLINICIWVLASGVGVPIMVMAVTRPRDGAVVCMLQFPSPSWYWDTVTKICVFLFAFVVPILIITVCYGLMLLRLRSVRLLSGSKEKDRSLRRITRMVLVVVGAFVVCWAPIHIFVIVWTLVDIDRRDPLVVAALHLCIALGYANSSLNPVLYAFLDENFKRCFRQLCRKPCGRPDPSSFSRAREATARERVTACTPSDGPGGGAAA

[3] = target: T3, cloned human κ-opioid receptor (Homo sapiens, UniProt P41145); assay: Inhibition of U69,593-stimulated [35S]GTPγS binding; format: biochemical; conditions: for efficacy for the κ opioid receptor in words: [35S]GTPγS in vitro functional assay; for δ/κ / μ/κ: ratio of Ke values; for δ/κ: selectivity for κ relative to δ; for μ/κ: selectivity for κ relative to μ
T3 construct: expressed in transfected cells
T3 sequence (P41145 whole entry): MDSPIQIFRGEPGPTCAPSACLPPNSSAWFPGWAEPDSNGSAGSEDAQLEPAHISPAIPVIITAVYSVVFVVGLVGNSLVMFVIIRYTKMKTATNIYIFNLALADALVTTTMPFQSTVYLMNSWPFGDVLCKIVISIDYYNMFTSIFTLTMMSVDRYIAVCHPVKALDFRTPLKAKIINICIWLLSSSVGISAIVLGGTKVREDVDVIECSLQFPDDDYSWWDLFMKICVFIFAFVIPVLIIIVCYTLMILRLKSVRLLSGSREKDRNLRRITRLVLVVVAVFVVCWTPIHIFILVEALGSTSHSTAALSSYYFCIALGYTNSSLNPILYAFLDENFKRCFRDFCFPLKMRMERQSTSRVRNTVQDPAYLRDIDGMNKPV

[4] = antagonism of DAMGO-stimulated [35S]GTPγS binding, cloned human μ receptor
[5] = antagonism of DPDPE-stimulated [35S]GTPγS binding, cloned human δ receptor
[6] = antagonism of U69,593-stimulated [35S]GTPγS binding, cloned human κ receptor
[7] = antagonism of DAMGO-stimulated [35S]GTPγS binding, cloned human μ receptor, read-out: μ, DAMGO Ke
[8] = antagonism of DPDPE-stimulated [35S]GTPγS binding, cloned human δ receptor, read-out: δ, DPDPE Ke
[9] = antagonism of U69,593-stimulated [35S]GTPγS binding, cloned human κ receptor, read-out: κ, U69,593 Ke

| Structure (SMILES) | μ, DAMGO Ke [1, 4] [nM] | δ, DPDPE Ke [2, 5] [nM] | efficacy for the κ opioid receptor in words [3] | κ, U69,593 Ke [3, 6] [nM] | δ/κ [3] | μ/κ [3] | Kb [1, 7] [nM] | Kb [2, 8] [nM] | Kb [3, 9] [nM] | melting point [°C] | Kb [1] [nM] | Kb [2] [nM] | Kb [3] [nM] |
| --- | --- | --- | --- | --- | --- | --- | --- | --- | --- | --- | --- | --- | --- |
| CC(C)[C@@H](CN1CCN(c2cccc(O)c2)[C@@H](C)C1)NC(=O)c1ccc(Oc2ccccc2)cc1.Cl.Cl [Compound 6a, N-(1S)-1-{[(3S)-4-(3-Hydroxyphenyl)-3-methylpiperazin-1-yl]methyl}-2-methylpropyl-4-phenoxybenzamide Dihydrochloride] | 51 ± 14.9 | 570 ± 79 | high efficacy (low Ke values) | 0.85 ± 0.35 |  |  |  |  |  |  |  |  |  |
| Cc1ccc(Oc2ccc(C(=O)N[C@H](CN3CCN(c4cccc(O)c4)[C@@H](C)C3)C(C)C)cc2)cc1.Cl.Cl [Compound 6b, N-(1S)-1-{[(3S)-4-(3-Hydroxyphenyl)-3-methylpiperazin-1-yl]methyl}-2-methylpropyl-4-(4-methylphenoxy)benzamide Dihydrochloride] | 20 ± 6 | 188 ± 33 | high efficacy (low Ke values) | 0.69 ± 0.25 | 275 | 29 |  |  |  |  |  |  |  |
| CC(C)[C@@H](CN1CCN(c2cccc(O)c2)[C@@H](C)C1)NC(=O)c1ccc(Oc2cccc(F)c2)cc1.Cl.Cl [Compound 6c, N-(1S)-1-{[(3S)-4-(3-Hydroxyphenyl)-3-methylpiperazin-1-yl]methyl}-2-methylpropyl-4-(3-fluorophenoxy)benzamide Dihydrochloride] | 30 ± 9.0 | 174 ± 4.5 |  | 1.48 ± 0.51 | 118 | 16 |  |  |  |  |  |  |  |
| Cc1cccc(Oc2ccc(C(=O)N[C@H](CN3CCN(c4cccc(O)c4)[C@@H](C)C3)C(C)C)cc2)c1.Cl.Cl [Compound 6d, N-(1S)-1-{[(3S)-4-(3-Hydroxyphenyl)-3-methylpiperazin-1-yl]methyl}-2-methylpropyl-4-(3-methylphenoxy)benzamide Dihydrochloride] | 18 ± 6 | 62 ± 20 | high efficacy (low Ke values) | 0.18 ± 0.06 |  |  |  |  |  |  |  |  |  |
| COc1ccccc1Oc1ccc(C(=O)N[C@H](CN2CCN(c3cccc(O)c3)[C@@H](C)C2)C(C)C)cc1.Cl.Cl [Compound 6e, N-(1S)-1-{[(3S)-4-(3-Hydroxyphenyl)-3-methylpiperazin-1-yl]methyl}-2-methylpropyl-4-(2-methoxyphenoxy)benzamide Dihydrochloride] | 127 ± 78 | 869 ± 205 |  | 5.60 ± 1.41 | 155 | 25 |  |  |  |  |  |  |  |
| COc1cccc(Oc2ccc(C(=O)N[C@H](CN3CCN(c4cccc(O)c4)[C@@H](C)C3)C(C)C)cc2)c1.Cl.Cl [Compound 6f, N-(1S)-1-{[(3S)-4-(3-Hydroxyphenyl)-3-methylpiperazin-1-yl]methyl}-2-methylpropyl-4-(3-methoxyphenoxy)benzamide Dihydrochloride] | 33 ± 14 | 1502 ± 412 | high efficacy (low Ke values) | 0.63 ± 0.13 | 2384 | 52 |  |  |  |  |  |  |  |
| CC(C)[C@@H](CN1CCN(c2cccc(O)c2)[C@@H](C)C1)NC(=O)c1ccc(Oc2ccc(O)cc2)cc1.Cl.Cl [Compound 6g, N-(1S)-1-{[(3S)-4-(3-Hydroxyphenyl)-3-methylpiperazin-1-yl]methyl}-2-methylpropyl-4-(4-hydroxyphenoxy)benzamide Dihydrochloride] | 71 ± 19 | 1696 ± 377 |  | 8.6 ± 3.7 | 1.97 | 8 |  |  |  |  |  |  |  |
| CC(C)[C@@H](CN1CCN(c2cccc(O)c2)[C@@H](C)C1)NC(=O)c1ccc(Oc2ccccc2O)cc1.Cl.Cl [Compound 6h, N-(1S)-1-{[(3S)-4-(3-Hydroxyphenyl)-3-methylpiperazin-1-yl]methyl}-2-methylpropyl-4-(2-hydroxyphenoxy)benzamide Dihydrochloride] | 125 ± 10 | 960 ± 224 |  | 1.06 ± 0.26 |  |  |  |  |  |  |  |  |  |
| CC(C)[C@@H](CN1CCN(c2cccc(O)c2)[C@@H](C)C1)NC(=O)c1ccc(Oc2cccc(O)c2)cc1.Cl.Cl [Compound 6i, N-(1S)-1-{[(3S)-4-(3-Hydroxyphenyl)-3-methylpiperazin-1-yl]methyl}-2-methylpropyl-4-(3-hydroxyphenoxy)benzamide Dihydrochloride] | 69 ± 14 | 625 ± 121 |  | 1.85 ± 0.51 | 338 | 37 |  |  |  |  |  |  |  |
| COc1ccc(Oc2ccc(C(=O)N[C@H](CN3CCN(c4cccc(O)c4)[C@@H](C)C3)C(C)C)cc2)cc1.Cl.Cl [Compound 6j, N-(1S)-1-{[(3S)-4-(3-Hydroxyphenyl)-3-methylpiperazin-1-yl]methyl}-2-methylpropyl-4-(4-methoxyphenoxy)benzamide Dihydrochloride] | 17 ± 5 | 1383 ± 1049 | high efficacy (low Ke values) | 0.60 ± 0.19 | 2305 | 28 |  |  |  |  |  |  |  |
| Cc1cc(C(=O)N[C@H](CN2CCN(c3cccc(O)c3)[C@@H](C)C2)C(C)C)ccc1Oc1ccccc1.Cl.Cl [Compound 6k, N-(1S)-1-{[(3S)-4-(3-Hydroxyphenyl)-3-methylpiperazin-1-yl]methyl}-2-methylpropyl-3-methyl-4-phenoxybenzamide Dihydrochloride] | 15 ± 2 | 435 ± 143 | high efficacy (low Ke values) | 0.63 ± 0.19 | 691 | 24 |  |  |  |  |  |  |  |
| Cc1cccc(Oc2ccc(C(=O)N[C@H](CN3CCN(c4cccc(O)c4)[C@@H](C)C3)C(C)C)cc2Cl)c1.Cl.Cl [Compound 6l, 3-Chloro-N-[(2S)-1-[(3S)-4-(3-hydroxyphenyl)-3-methylpiperazin-1-yl]-3-methylbutan-2-yl]-4-(3-methylphenoxy)benzamide Dihydrochloride] |  |  | high efficacy (low Ke values) |  |  |  | 43 ± 10 | 1100 ± 262 | 0.29 ± 0.13 | 154 to 158 |  |  |  |
| Cc1ccc(O)c(Oc2ccc(C(=O)N[C@H](CN3CCN(c4cccc(O)c4)[C@@H](C)C3)C(C)C)cc2)c1.Cl.Cl [Compound 6m, 4-(2-Hydroxy-5-methylphenoxy)-N-[(2S)-1-[(3S)-4-(3-hydroxyphenyl)-3-methylpiperazin-1-yl]-3-methylbutan-2-yl]benzamide Dihydrochloride] |  |  |  |  |  |  |  |  |  | 179 to 183 |  |  |  |
| CC(C)[C@@H](CN1CCN(c2cccc(O)c2)[C@@H](C)C1)NC(=O)c1ccc(Oc2ccccc2)cn1 [Compound 7a, N-(1S)-1-{[(3S)-4-(3-Hydroxyphenyl)-3-methylpiperazin-1-yl]methyl}-2-methylpropyl]-5-phenoxypyridine-2-carboxamide Trihydrochloride] |  |  |  |  | 723 | 36 | 101 ± 16 | 2020 ± 678 | 2.8 ± 1.2 |  |  |  |  |
| CC(C)[C@@H](CN1CCN(c2cccc(O)c2)[C@@H](C)C1)NC(=O)c1ccc(Oc2ccccc2)nc1.Cl.Cl.Cl [Compound 7b, N-[(2S)-1-[(3S)-4-(3-Hydroxyphenyl)-3-methylpiperazin-1-yl]-3-methylbutan-2-yl]-6-phenoxypyridine-3-carboxamide Trihydrochloride] |  |  |  |  | 1119 | 38 |  |  |  | 168 to 170 | 60 ± 11 | 1790 ± 63 | 1.6 ± 0.3 |
| CC(C)[C@@H](CN1CCN(c2cccc(O)c2)[C@@H](C)C1)NC(=O)c1ccc(Oc2ccccc2F)cc1.Cl.Cl [Compound 19a, 4-(2-Fluorophenoxy)-N-[(1S)-1-{[(3S)-4-(3-hydroxyphenyl)-3-methylpiperazin-1-yl]methyl}-2-methylpropyl]benzamide Dihydrochloride] |  |  | high efficacy (low Ke values) |  | 126 | 28 | 21.1 ± 4 | 96 ± 18 | 0.76 ± 0.21 | 156 to 159 |  |  |  |
| CC(C)[C@@H](CN1CCN(c2cccc(O)c2)[C@@H](C)C1)NC(=O)c1ccc(Oc2cccc(C(F)(F)F)c2)cc1 [Compound 19b, N-[(1S)-1-{[(3S)-4-(3-Hydroxyphenyl)-3-methylpiperazin-1-yl]methyl}-2-methylpropyl]-4-[3-(trifluoromethyl)phenoxy]benzamide] |  |  |  |  | 45 | 18 |  |  |  | 110 to 115 | 21 ± 7.2 | 54 ± 19 | 1.2 ± 0.35 |
| CC(C)[C@@H](CN1CCN(c2cccc(O)c2)[C@@H](C)C1)NC(=O)c1ccc(Oc2cccc(Cl)c2)cc1.Cl.Cl [Compound 19c, 4-(3-Chlorophenoxy)-N-[(1S)-1-{[(3S)-4-(3-hydroxyphenyl)-3-methylpiperazin-1-yl]methyl}-2-methylpropyl]benzamide Dihydrochloride] |  |  |  |  | 20 | 43 | 18 ± 7.2 | 8.3 ± 0.9 | 0.42 ± 0.05 | 103 to 105 |  |  |  |
| CC(C)[C@@H](CN1CCN(c2cccc(O)c2)[C@@H](C)C1)NC(=O)c1ccc(Oc2ccccc2O)c(Cl)c1.Cl.Cl [Compound 19n, 3-Chloro-4-(2-hydroxyphenoxy)-N-[(1)-1-{[(3S)-4-(3-hydroxyphenyl)-3-methylpiperazin-1-yl]methyl}-2-methylpropyl]benzamide Dihydrochloride] | 36 ± 9.2 | 210 ± 82 |  | 5.0 ± 0.82 | 42 | 7 |  |  |  |  |  |  |  |
